Reference: patent US10206937B2, “Boronic acid derivatives and therapeutic uses thereof” (Qpex Biopharma, Inc., priority 2014, dated 2019)
Read-outs that look alike come from different tables or passages of the source.

Legend:
VIM-1 = biological target: T1, VIM-1 (Pseudomonas aeruginosa, UniProt A0A0F7KYQ8); assay: biochemical; conditions: cleavage of nitrocefin (200 uM) by VIM-1 supernatant
T1 construct: made in house; host or cells: ECM6711 strain carrying pUCP24-VIM-1 plasmid; culture supernatant used unpurified

OXA-48 = OXA-48 (Klebsiella pneumoniae, UniProt Q6XEC0); assay: Inhibition of purified class D carbapenemase OXA-48 (Ki, carbapenem substrates); format: biochemical
OXA-48, sequence (Q6XEC0 23-265, looked up): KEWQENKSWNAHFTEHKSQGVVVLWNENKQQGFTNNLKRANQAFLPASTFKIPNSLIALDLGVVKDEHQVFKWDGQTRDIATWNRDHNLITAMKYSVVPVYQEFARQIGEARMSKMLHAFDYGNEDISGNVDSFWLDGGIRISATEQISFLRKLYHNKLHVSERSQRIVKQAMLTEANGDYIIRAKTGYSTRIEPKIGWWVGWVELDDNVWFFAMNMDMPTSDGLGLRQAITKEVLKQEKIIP

KPC-2 = KPC-2 (Klebsiella pneumoniae, UniProt Q9F663); assay: Inhibition of purified class A carbapenemase KPC-2 (Ki, carbapenem substrates); format: biochemical
KPC-2, sequence (Q9F663 25-293 limits assumed): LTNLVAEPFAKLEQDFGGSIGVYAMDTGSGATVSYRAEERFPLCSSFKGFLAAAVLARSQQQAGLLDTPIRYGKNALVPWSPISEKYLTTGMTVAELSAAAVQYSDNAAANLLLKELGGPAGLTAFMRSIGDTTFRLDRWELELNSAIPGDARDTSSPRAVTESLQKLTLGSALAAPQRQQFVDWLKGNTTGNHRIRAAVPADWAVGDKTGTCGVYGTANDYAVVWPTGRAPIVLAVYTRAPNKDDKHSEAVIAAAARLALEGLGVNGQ

[1] = system: strains of Enterobacteriaceae producing various carbapenemases (class A, D and B; 169 strains); assay: Meropenem or tebipenem potentiation by Compounds 97 or 62 (MIC); format: cell-based; conditions: Compound 62 at a fixed concentration of 8 μg/ml
Method: The largest panel of clinical isolates expressing class A, D and B carbapenemases alone or in combination with other beta-lactamases (169 strains) was used to evaluate carbapenem potentiation activity of Compounds 97 and 62. MIC for meropenem and tebipenem of these strains were determined either alone or in the presence of Compounds 97 or 62, respectively, at a fixed concentration of 8 μg/ml in the growth media.

[2] = biological target: purified class A, C and D enzymes (Enterobacter cloacae, UniProt P05364); format: biochemical; conditions: purified P99/AmpC of ECL; nitrocefin reporter substrate
purified class A, C and D enzymes (Enterobacter cloacae, UniProt P05364), sequence (P05364 21-381): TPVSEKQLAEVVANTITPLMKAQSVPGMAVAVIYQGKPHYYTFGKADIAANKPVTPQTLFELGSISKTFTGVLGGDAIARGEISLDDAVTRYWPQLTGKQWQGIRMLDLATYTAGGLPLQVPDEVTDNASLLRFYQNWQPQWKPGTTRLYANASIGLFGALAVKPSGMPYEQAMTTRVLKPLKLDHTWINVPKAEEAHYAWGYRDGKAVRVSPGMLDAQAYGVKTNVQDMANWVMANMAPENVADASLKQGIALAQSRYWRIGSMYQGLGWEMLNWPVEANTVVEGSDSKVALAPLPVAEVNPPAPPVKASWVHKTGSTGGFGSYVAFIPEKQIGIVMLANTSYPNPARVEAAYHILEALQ

[3] = biological target: purified class A, C and D enzymes (Escherichia coli, UniProt Q9L5C7); format: biochemical; conditions: purified CTX-M-14; nitrocefin reporter substrate
purified class A, C and D enzymes (Escherichia coli, UniProt Q9L5C7), sequence (Q9L5C7 entry or part of it): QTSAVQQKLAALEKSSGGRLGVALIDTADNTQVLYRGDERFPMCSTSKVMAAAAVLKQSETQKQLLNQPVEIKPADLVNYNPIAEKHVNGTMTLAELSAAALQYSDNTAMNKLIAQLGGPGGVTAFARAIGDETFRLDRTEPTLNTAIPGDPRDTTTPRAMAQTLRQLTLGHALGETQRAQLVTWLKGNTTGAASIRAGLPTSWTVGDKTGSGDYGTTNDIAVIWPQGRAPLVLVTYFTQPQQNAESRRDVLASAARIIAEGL

[4] = biological target: T2, purified class A, C and D enzymes (UniProt Q9F663); format: biochemical; conditions: read-out: Ki (KPC-2, NCF); purified KPC-2; nitrocefin reporter substrate
T2 construct: rows headed: Ki (KPC-2, NCF); other: purified KPC-2; nitrocefin reporter substrate

[5] = biological target: T3, purified class A, C and D enzymes (UniProt P0AD64, L31Q/G234S/E235K, species not given); format: biochemical; conditions: read-out: Ki (SHV-12, NCF); purified SHV-12; nitrocefin reporter substrate
T3 construct: Ki (SHV-12, NCF); other: purified SHV-12; nitrocefin reporter substrate
T3 sequence (P0AD64 1-286 L31Q/G234S/E235K): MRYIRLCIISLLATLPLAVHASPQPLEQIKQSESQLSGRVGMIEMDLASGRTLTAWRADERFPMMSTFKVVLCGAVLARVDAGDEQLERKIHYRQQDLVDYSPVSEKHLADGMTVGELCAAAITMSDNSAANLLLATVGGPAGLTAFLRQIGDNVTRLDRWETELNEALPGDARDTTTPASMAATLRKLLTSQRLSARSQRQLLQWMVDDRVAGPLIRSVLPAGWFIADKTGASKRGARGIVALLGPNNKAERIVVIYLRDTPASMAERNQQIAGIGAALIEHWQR

[6] = biological target: T4, purified class A, C and D enzymes (UniProt Q6XEC0); format: biochemical; conditions: read-out: Ki (OXA-48, NCF); purified OXA-48; nitrocefin reporter substrate
T4 construct: rows headed: Ki (OXA-48, NCF); other: purified OXA-48; nitrocefin reporter substrate

NDM-1 [7] = biological target: T5, NDM-1 (Klebsiella pneumoniae, UniProt C7C422); assay: biochemical
T5 sequence (C7C422 29-270, looked up, species assumed): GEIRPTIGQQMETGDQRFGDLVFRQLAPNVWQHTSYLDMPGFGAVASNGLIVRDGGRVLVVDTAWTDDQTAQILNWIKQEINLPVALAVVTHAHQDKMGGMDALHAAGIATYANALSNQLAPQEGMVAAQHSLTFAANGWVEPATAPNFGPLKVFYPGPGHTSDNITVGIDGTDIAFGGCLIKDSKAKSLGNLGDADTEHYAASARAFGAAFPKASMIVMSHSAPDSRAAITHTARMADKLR

NDM-1 [8] = biological target: T5, NDM-1; assay: Inhibition of purified class B carbapenemase NDM-1 (Ki, imipenem substrate); format: biochemical; conditions: NDM-1, substrate imipenem; read-out: Ki NDM-1, Imipenem
[9] = Serum stability of prodrugs: hydrolysis by human serum; format: in vitro ADME; conditions: prodrug; for Measured Initial Conc. in Serum: 37 degrees, sampled immediately
Method: (§1) Prodrug strategy is one of the ways to achieve or increase oral bioavailability for therapeutic drugs. Compound 62 was used as a template for various ester prodrugs. After a prodrug molecule is absorbed into systemic circulation, it should be hydrolyzed in the blood in order to release the active form. Hydrolysis of several prodrugs by rat and human serum were evaluated.
(§2) For all stability experiments the test compounds were treated with rat or human serum in Eppendorf tubes. Typically, 980 μl of serum was prewarmed at 37 degrees for 2 minutes and then 20 μl of a compound (at 1 mg/ml, 50×) was added to it to get a final concentration of 20 μg/ml and immediately mixed. Duplicate samples were tested. […] After vortexing for 30 seconds, the tube was centrifuged in a microcentrifuge for 10 minutes at 15K rpm. Next, 100 μl of the supernatant was combined with 600 μl of water and injected on LC-MS using 0.1% formic acid in water for mobile phase A and 0.1% formic acid in methanol for mobile phase B on an ACE 5 C18 2.1×100 mm column with a 10 μL it injection. The flow rate and gradient were adjusted as needed to give the desired resolution and run time. The pH of the mobile phase was adjusted if needed to improve the chromatography.
(§3) The time course of both the disappearance of a prodrug and the appearance of the active form of that prodrug is presented in Table 13 and Table 14. The active metabolites for all of the listed prodrugs are corresponding parent drugs

[10] = Serum stability of prodrugs: hydrolysis by rat serum; format: in vitro ADME; conditions: rat serum, prodrug; for Measured Initial Conc. in Serum: 37 degrees, sampled immediately
Method: as §1, §2, §3

[11] = system: strains of Enterobacteriaceae overexpressing various carbapenemases (class A and B); assay: organism not typed; format: cell-based
Excerpt: Several strains simultaneously expressing both class A and class B carbapenemases, which were constructed using conjugation, were also included in the panel.

[12] = system: strains of Enterobacteriaceae producing various carbapenemases (class A, D and B; 104 strains); assay: Antibiotics potentiation by Compound 27 (MIC; meropenem, doripenem, ertapenem, cefepime); format: cell-based; conditions: Compound 27 at a fixed concentration of 4 μg/ml
[13] = cleavage of biapenem by OXA-48, read-out: Ki, Biapenem
[14] = cleavage of doripenem by OXA-48, read-out: Ki, Doripenem
[15] = cleavage of imipenem by OXA-48, read-out: Ki, Imipenem
[16] = cleavage of meropenem by OXA-48, read-out: Ki, Meropenem
[17] = cleavage of biapenem by KPC-2, read-out: Ki, Biapenem
[18] = cleavage of doripenem by KPC-2, read-out: Ki, Doripenem
[19] = cleavage of imipenem by KPC-2, read-out: Ki, Imipenem
[20] = cleavage of meropenem by KPC-2, read-out: Ki, Meropenem
[21] = cleavage of biapenem (100 uM) by NDM-1, read-out: Ki, Biapenem
[22] = cleavage of imipenem (100 uM) by NDM-1, read-out: Ki, Imipenem
[23] = purified OXA-48, substrate biapenem, read-out: Ki OXA-48, Biapenem
[24] = cleavage of meropenem (100 uM) by NDM-1, read-out: Ki, Meropenem
[25] = cleavage of tebipenem by OXA-48, read-out: Ki, Tebipenem
[26] = cleavage of tebipenem by KPC-2, read-out: Ki, Tebipenem
[27] = purified KPC-2, substrate biapenem, read-out: Ki KPC-2, Biapenem
[28] = cleavage of tebipenem (100 uM) by NDM-1, read-out: Ki, Tebipenem

Compound	IC50 (VIM-1) [nM]	Ki (OXA-48; [13]) [nM]	Ki (OXA-48; [14]) [nM]	Ki (OXA-48; [15]) [nM]	Ki (OXA-48; [16]) [nM]	Ki (KPC-2; [17]) [nM]	Ki (KPC-2; [18]) [nM]	Ki (KPC-2; [19]) [nM]	Ki (KPC-2; [20]) [nM]	Ki (P99/AmpC of ECL, NCF) [2]	Ki (CTX-M-14, NCF) [3]	Ki [4] [nM]	Ki [5] [nM]	Ki [6] [nM]	Ki (NDM-1 [7]; [21]) [nM]	Ki (NDM-1 [7]; [22]) [nM]	Ki (NDM-1 [8]) [nM]	Ki (OXA-48; [23]) [nM]	Ki (NDM-1 [7]; [24]) [nM]	Ki (OXA-48; [25]) [nM]	also measured
COc1ccc2c(c1C(=O)O)OB(O)[C@@H](Sc1nncs1)C2 [Compound 62, (3R)-2-hydroxy-7-methoxy-3-(1,3,4-thiadiazol-2-ylsulfanyl)-3,4-dihydro-1,2-benzoxaborinine-8-carboxylic acid]	< 1000	< 10	< 10	< 10	< 10	< 10	< 10	10 to 100	< 10	Y (0.1 μM to 1 μM)	X (Less than 0.1 μM)	< 100	< 100	< 100	10 to 100	> 100	> 100	–	–	–	Ki (OXA-48; purified OXA-48, substrate biapenem, numeric value, read-out: Ki OXA-48, Biapenem): 5.6 nM; Ki (KPC-2; purified KPC-2, substrate biapenem, numeric value, read-out: Ki KPC-2, Biapenem): 3.9 nM; tebipenem MIC [1]: significantly reduced
COc1ccc2c(c1C(=O)OCOC(=O)C(C)C)OB(O)[C@@H](Sc1nncs1)C2 [Compound 121, 2-methylpropanoyloxymethyl (3R)-2-hydroxy-7-methoxy-3-(1,3,4-thiadiazol-2-ylsulfanyl)-3,4-dihydro-1,2-benzoxaborinine-8-carboxylate]	–	–	–	–	–	–	–	–	–	–	–	–	–	–	–	–	–	–	–	–	Measured Initial Conc. in Serum [9]: 51.4 µM; Conc. at t = 1 hr [9]: 38.6 µM; Conc. at t = 3 hr [9]: 24.8 µM; Measured Initial Conc. in Serum [10]: 31.3 µM; Conc. at t = 1 hr [10]: 40.7 µM; Conc. at t = 3 hr [10]: 24.3 µM
COc1ccc2c(c1C(=O)OCOC(=O)OC(C)C)OB(O)[C@@H](Sc1nncs1)C2 [Compound 122, isopropoxycarbonyloxymethyl (3R)-2-hydroxy-7-methoxy-3-(1,3,4-thiadiazol-2-ylsulfanyl)-3,4-dihydro-1,2-benzoxaborinine-8-carboxylate]	–	–	–	–	–	–	–	–	–	–	–	–	–	–	–	–	–	–	–	–	Measured Initial Conc. in Serum [9]: 44.3 µM; Conc. at t = 1 hr [9]: 34.1 µM; Conc. at t = 3 hr [9]: 47.1 µM; Measured Initial Conc. in Serum [10]: 37.7 µM; Conc. at t = 1 hr [10]: 26.6 µM; Conc. at t = 3 hr [10]: 39.0 µM
O=C(O)c1cccc2c1OB(O)[C@@H](OC1CNC1)C2 [Compound 18, (R)-3-(azetidin-3-yloxy)-2-hydroxy-3,4-dihydro-2H-benzo[e][1,2]oxaborinine-8-carboxylic acid]	≥ 1000	–	–	–	–	–	–	–	–	–	–	100 to 1000	< 100	< 100	< 10	10 to 100	10 to 100	< 10	< 10	–	–
Nc1nnc(S[C@H]2Cc3ccc(F)c(C(=O)O)c3OB2O)s1 [Compound 23, (R)-3-(5-amino-1,3,4-thiadiazol-2-ylthio)-7-fluoro-2-hydroxy-3,4-dihydro-2H-benzo[e][1,2]oxaborinine-8-carboxylic acid]	≥ 1000	< 10	< 10	< 10	< 10	< 10	< 10	10 to 100	< 10	–	–	< 100	< 100	< 100	–	10 to 100	10 to 100	–	–	< 10	Ki (KPC-2; [26]): < 10 nM
CSc1ccc2c(c1C(=O)O)OB(O)[C@@H](Sc1nnc(N)s1)C2 [Compound 30, (R)-3-(5-amino-1,3,4-thiadiazol-2-ylthio)-2-hydroxy-7-(methylthio)-3,4-dihydro-2H-benzo[e][1,2]oxaborinine-8-carboxylic acid]	< 1000	< 10	< 10	< 10	< 10	< 10	< 10	10 to 100	< 10	X (Less than 0.1 μM)	X (Less than 0.1 μM)	< 100	< 100	< 100	10 to 100	10 to 100	10 to 100	10 to 100	< 10	< 10	Ki (KPC-2; [26]): < 10 nM; Ki (KPC-2; [27]): 10 to 100 nM; Ki (NDM-1 [7]; [28]): 10 to 100 nM
Nn1cnnc1S[C@H]1Cc2cccc(C(=O)O)c2OB1O [Compound 14, (R)-3-(4-amino-4H-1,2,4-triazol-3-ylthio)-2-hydroxy-3,4-dihydro-2H-benzo[e][1,2]oxaborinine-8-carboxylic acid]	< 1000	10 to 100	–	10 to 100	> 100	–	–	–	–	–	–	–	< 100	< 100	< 10	< 10	–	–	< 10	> 100	carbapenem MIC (imipenem, meropenem) [11]: significantly reduced
COc1ccc2c(c1C(=O)O)OB(O)[C@@H](Sc1nnc(N)s1)C2 [Compound 27, (R)-3-(5-amino-1,3,4-thiadiazol-2-ylthio)-2-hydroxy-7-methoxy-3,4-dihydro-2H-benzo[e][1,2]oxaborinine-8-carboxylic acid]	< 1000	< 10	< 10	< 10	< 10	< 10	< 10	10 to 100	< 10	Y (0.1 μM to 1 μM)	X (Less than 0.1 μM)	< 100	< 100	< 100	10 to 100	10 to 100	10 to 100	10 to 100	< 10	< 10	antibiotics MIC (meropenem, doripenem, ertapenem, cefepime) [12]: significantly reduced; Ki (KPC-2; [26]): < 10 nM; Ki (KPC-2; [27]): 10 to 100 nM; Ki (NDM-1 [7]; [28]): 10 to 100 nM
